According to patent US9126060B2, “Cosmetic use of geranylgeranyl-2-propanol” (SEDERMA, priority 2010, dated 2015):

Tests used:
[1] = ORAC test (Oxygen-Radical Absorbance Capacity): fluorescein degradation by peroxyl radicals; assay type: biochemical; conditions: n = 6
Excerpt: Principle: the ORAC test (“Oxygen-Radical Absorbance Capacity”) measures degradation by the oxidative way of a fluorescent molecule (fluorescein). Degradation of fluorescein by peroxyl radicals generated by AAPH (2,2′-azobis (2-amidinopropane) dichloride) induces a decrease in fluorescence measured by a spectrofluorometer during a degradation kinetic.
An antioxidant protects this fluorescein against this radical degradation. The decrease in fluorescence will be smaller and slower in the presence of the antioxidant than in its absence. The comparison between the parameters of the two kinetics makes it possible to calculate a percentage of protection against free radical degradation.

[2] = test system: human fibroblasts; assay: Lipidic peroxidation of fibroblast cellular membranes after UVA stress (MDA, TBARS method); assay type: cell-based; conditions: for MDA concentration: post UVA stress
Experimental: Principle: human fibroblasts are grown to confluence and then placed or not in contact with the GGP for 72 hours. Following this contact, the GGP is removed and the cells are exposed to oxidative stress (UVA). After a further incubation with or without the GGP, malonaldehyde (MDA) is determined by the TBARS method (Thiobarbituric Acid Reactive Substances) and the value obtained divided by the amount of cellular protein.

[3] = test system: fibroblasts (FHN); assay: Intracellular peroxide level (DCFH-DA probe) in fibroblasts after SIPS; assay type: cell-based, human; conditions: 3 ppm
Experimental: Principle: Fibroblasts at confluence contacted or not with the GGP for several days, are subjected to oxidative stress by hydrogen peroxide in the presence or absence of the GGP. This stress is intended to induce premature senescence in cells.
After this initial stress, the cells were detached from the support and returned to culture at low density until confluence. They are then contacted or not with the compound of the invention for 24 hours. At this stage, each set of cultures (with or without the tested compounds) is divided into 2 lots. A first batch (not stressed) is evaluated directly for its concentration of intracellular peroxides (using the probe DCFH-DA). Simultaneously, the other batch (stressed) undergoes a second stress by hydrogen peroxide (weaker than the first) just before being evaluated in the same way regarding the concentration of intracellular peroxides.
The amount of fluorescence measured with this probe is directly proportional to the amount of peroxides present in the cells.

[4] = test system: human dermal fibroblasts; assay: ATP synthesized by fibroblasts in premature senescence after oxidizing stress (chemiluminescence); assay type: cell-based; conditions: for ATP: after hydrogen peroxide stress
Experimental: Principle: human dermal fibroblasts at confluence received the GGP for 24 h. After this phase, they were treated with hydrogen peroxide in the presence or absence of the GGP. This stress is intended to induce premature senescence (SIPS) in cells and thus a decrease in ATP synthesis. A few hours after this stress, cells were lysed and the amount of intracellular ATP was assessed by chemiluminescence. This amount of ATP was divided by the amount of intracellular proteins.

[5] = test system: collagen I; assay: Collagen I synthesis in presenescent fibroblasts (immunofluorescence, image analysis); assay type: cell-based, human; conditions: for collagen I: senescent cells, 11 days, n = 20 photos
Experimental: Principle: The collagen I synthesis was monitored in pre-senescent human dermal fibroblasts. These cells were cultured for 11 days with the GGP in a growth medium. Following this incubation, the cell layers were fixed and labeled by immunofluorescence, to visualize the network of collagen I and to quantify by image analysis on photographs. In parallel, quantification was performed on proliferating cells.

[6] = test system: fibroblasts; assay: DNA array gene expression on fibroblasts; assay type: cell-based
[7] = test system: hyaluronic acid; assay: Hyaluronic acid synthesis in human fibroblasts; assay type: cell-based; conditions: for hyaluronic acid (AH): 24 hours, n = 5
Experimental: Principle: Human dermal fibroblasts were grown in plate for 24 hours. The cells are then placed in contact or not with GGP for 24 hours. Culture supernatants were collected and assayed for the amount of hyaluronic acid (HA) is then divided by the number of cells present on the layer. TGF-β1 is used as a positive control.

[8] = test system: human dermal fibroblasts; assay: Collagen gel contraction by human dermal fibroblasts cultivated until presenescence; assay type: cell-based; conditions: for Gel heterogeneity / Gel surface: n = 5
Excerpt: Principle: Proliferative human dermal fibroblasts were cultivated with or without the GGP over several generations to obtain presenescent cells. A constant number of cells from each case was then included in a collagen gel. The contractile capacity of cells was then followed by using photographs. Quantification by image analysis, focused on the intensity of the contraction (gel surface) and the contraction quality (gel heterogeneity).

[9] = test system: human melanocytes; assay: Melanin content of human melanocytes; assay type: cell-based; conditions: for Melanin content: 5 days, n = 4
Experimental: Principle: Human melanocytes are seeded and placed in contact with the GGP for 5 days. After incubation, the residual tyrosinase activity and total melanin content were measured in cell homogenates, and then divided by the number of cells (melanin) or to the protein amount (tyrosinase).

[10] = test system: Keratinocytes; assay: Keratinocyte culture survival and recovery after UVB stress (cell count); assay type: cell-based; conditions: for Cell number, mean (n = 3): UVB 50 mJ/cm^2, six days later
Experimental: Keratinocytes in monolayer, after an UVB radiation (12 to 240 mJ/cm^2), develop on their surface many burgeons, detach from the culture medium, undergo damages up to death. A cell count at various times after UVB radiation is used to evaluate the cell viability of the culture. This model is widely used in cosmetics to evaluate the protective effect of various compounds against the deleterious effects of UVB stress.
Principle: Keratinocytes were cultured in 35 mm dish. Just at confluence, the cells are contacted or not with the GGP for 24 hours. UVB irradiation (50 mJ/cm^2) is performed the next day, and the cells are or not contacted with the GGP. Six days later, the cells are counted to determine the cell viability in culture.

[11] = test system: nidogen 1; assay: Nidogen 1 biosynthesis in fibroblast culture (ELISA); assay type: cell-based, human; conditions: 3 days, n = 5
Experimental: Principle: Normal human fibroblasts were brought to confluence, then placed or not in contact with the GGP, at 1 or 2.5 ppm, for 3 days. After this incubation the nidogen 1 content is determined by ELISA in cell homogenates, and divided by the number of cells.

[12] = after 3, 6 and 24 hours of contact
[13] = after 6 and 24 hours of contact

CC(C)=CCC/C(C)=C/CC/C(C)=C/CC/C(C)=C/CCC(C)O (stereo not shown) [GGP, 6,10,14,18-tetramethylnonadeca-5,9,13,17-tetraen-2-ol]
% of protection ([1]; 10 ppm): 56% | % of protection ([1]; 50 ppm): 68% | % of protection ([1]; 200 ppm): 77% | % of protection ([1]; 400 ppm): 87% | % Change of MDA vs post-stress control ([2]; 3 ppm): −20%; p < 0.01 | MDA concentration ([2]; 3 ppm): 881 +/− 36 nM/mg protein | % Change of MDA vs post-stress control ([2]; 5 ppm): −34%; p < 0.01 | MDA concentration ([2]; 5 ppm): 727 +/− 39 nM/mg protein | % Change of MDA vs post-stress control ([2]; 7 ppm): −53%; p < 0.01 | MDA concentration ([2]; 7 ppm): 515 +/− 11 nM/mg protein | Endogen peroxides ([3]; SIPS fibroblasts subjected to a second oxidant stress): 161 +/− 14 UFA/million of cells | % Change/Control of endogen peroxides ([3]; after SIPS, not stressed again): −40%; p < 0.01 | Endogen peroxides ([3]; after SIPS, not stressed again): 61.2 +/− 2.6 UFA/million of cells | Change (%) of ATP vs after-stress control ([4]; 5 ppm): +76%; p < | ATP ([4]; 5 ppm): 311 +/− 80 nM/0.1 μg protein | Change (%) of ATP vs after-stress control ([4]; 7 ppm): +460%; p < | ATP ([4]; 7 ppm): 988 +/− 38 nM/0.1 μg protein | Change (%) of collagen I vs senescent cells ([5]; 3 ppm): +367%; p < 0.01 | collagen I ([5]; 3 ppm): 280 +/− 220 UFA/10^4 cell | Change (%) of collagen I vs senescent cells ([5]; 5 ppm): +483%; p < 0.01 | collagen I ([5]; 5 ppm): 350 +/− 290 UFA/10^4 cell | gene expression of actin gamma 2 (ACTG2) [6, 12]: increase in gene expression | gene expression of filament associated actin protein (AFAP1L1) [6, 12]: increase in gene expression | gene expression of hyaluronic acid synthase 2 [6, 12]: increase in gene expression | expression of JMJD6 gene [6, 13]: increased expression | expression of PLOD2 gene [6, 13]: increased expression | % of change of hyaluronic acid vs control ([7]; 3 ppm): +23% | hyaluronic acid (AH) ([7]; 3 ppm): 5322 +/− 157 ng of AH/10^6 cells | % of change of hyaluronic acid vs control ([7]; 5 ppm): +33% | hyaluronic acid (AH) ([7]; 5 ppm): 5758 +/− 82 ng of AH/10^6 cells | % of change of hyaluronic acid vs control ([7]; 7 ppm): +41% | hyaluronic acid (AH) ([7]; 7 ppm): 6101 +/− 320 ng of AH/10^6 cells | % of change of hyaluronic acid vs control ([7]; 10 ppm): +46% | hyaluronic acid (AH) ([7]; 10 ppm): 6331 +/− 365 ng of AH/10^6 cells | % change of gel surface vs control ([8]; 3 ppm): −17.5%; p < 0.01 | Gel heterogeneity ([8]; 3 ppm): 22.9 +/− 4.1 UA | Gel surface ([8]; 3 ppm): 6.12 ± 1.94 cm^2 | % change of gel surface vs control ([8]; 5 ppm): −21.5%; p < 0.01 | Gel heterogeneity ([8]; 5 ppm): 21.8 +/− 3.6 UA | Gel surface ([8]; 5 ppm): 5.82 ± 1.69 cm^2 | Change (%) of melanin content vs control ([9]; 1 ppm): −4%; nsd | Melanin content ([9]; 1 ppm): 46.6 +/− 2.4 μg/mL/10^6 cell | Change (%) of melanin content vs control ([9]; 3 ppm): −36%; p < 0.01 | Melanin content ([9]; 3 ppm): 31.3 +/− 1.4 μg/mL/10^6 cell | Change (%) of melanin content vs control ([9]; 5 ppm): −59%; p < 0.01 | Melanin content ([9]; 5 ppm): 20.2 +/− 1.3 μg/mL/10^6 cell | % change/control of cell number ([10]; 1 ppm): +31% | Cell number, mean (n = 3) ([10]; 1 ppm): 4.83 ×10^5/35 mm dish | % change/control of cell number ([10]; 1.65 ppm): +38% | Cell number, mean (n = 3) ([10]; 1.65 ppm): 5.08 ×10^5/35 mm dish | Stimulation % of nidogen 1 biosynthesis ([11]; 1 ppm): +28% | Stimulation % of nidogen 1 biosynthesis ([11]; 2.5 ppm): +94%
